In ChEMBL document CHEMBL1201862, “PubChem BioAssay data set” (2004):
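All cell lines were grown in 96-well plates and treated with compound for 48 hours. Abbreviation: GI50, concentration required for 50% inhibition of growth.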 Activity calls are given as the source filed them. Rule as the data show it: active = GI50 up to about 1.1 µM and inactive = higher.

How the values were obtained:
Assay in all cases: inhibition of tumour cell growth, NCI panel, 48 h
[1] = test system: HCT-15
[2] = test system: 786-0
[3] = test system: MOLT-4
[4] = test system: RPMI-8226
[5] = test system: UACC-257
[6] = test system: UO-31
[7] = test system: UACC-62
[8] = test system: OVCAR-3
[9] = test system: LOX IMVI
[10] = test system: ACHN
[11] = test system: HCC 2998
[12] = test system: MDA-N
[13] = test system: OVCAR-4
[14] = test system: MDA-MB-435
[15] = test system: SW-620
[16] = test system: EKVX
[17] = test system: HOP-62
[18] = test system: TK-10
[19] = test system: HT-29
[20] = test system: NCI-H226

Measured: GI50

CCOC(=O)c1c(C)n(-c2ccc(Cl)cc2)c2c1cc(O)c1[nH]c3c(c12)CCCC3
> 100 µM: [1]
inactive: [2] > 100 µM | [3] 26.4 µM | [4] 33.9 µM | [5] 47 µM | [6] > 100 µM | [7] 27.1 µM | [8] 54.2 µM | [9] 29.4 µM | [10] 46.3 µM | [11] 60.7 µM | [12] 35.7 µM | [13] 45.8 µM | [14] 24.9 µM | [15] 47.3 µM | [16] 75.7 µM | [17] > 100 µM | [18] > 100 µM | [19] 30.2 µM | [20] > 100 µM

N=C(N)SC1c2ccccc2-c2cc([N+](=O)[O-])ccc21 (stereo not given)
inactive: [2] 4.67 µM | [3] 3.52 µM | [4] 4.2 µM | [5] 7.45 µM | [6] 8.13 µM | [7] 2.86 µM | [8] 2.69 µM | [9] 5.57 µM | [10] 6.53 µM | [11] 2.59 µM | [12] 3 µM | [13] 5 µM | [14] 1.92 µM | [15] 3.15 µM | [16] 10.4 µM | [17] 6.56 µM | [18] 8.24 µM | [19] 3.66 µM | [20] 7.53 µM
4.48 µM: [1]

CCOC(=O)c1c(N2CCCC2)nsc1Nc1ccc(F)cc1
inactive: [2] 26.1 µM | [3] 23.9 µM | [4] 36.6 µM | [5] 45.1 µM | [6] 16 µM | [7] 45.4 µM | [8] > 100 µM | [9] 53.7 µM | [10] 31.2 µM | [11] 31.4 µM | [12] 34.9 µM | [13] 64.4 µM | [14] 28.8 µM | [15] 40.4 µM | [16] 8.38 µM | [17] 63.5 µM | [18] 57.7 µM | [19] 23.6 µM | [20] 60.4 µM
29.6 µM: [1]

CCOC(=O)C(NCc1ccccc1)(NC(=O)c1ccccc1)C(F)(F)F (stereo not given)
78.3 µM: [1]
inactive: [2] > 100 µM | [3] 32.3 µM | [4] 33.3 µM | [5] 90.4 µM | [6] 46.6 µM | [7] > 100 µM | [8] 89.7 µM | [9] 95.1 µM | [10] > 100 µM | [11] > 100 µM | [12] > 100 µM | [13] 45.3 µM | [14] > 100 µM | [15] 43.6 µM | [16] 82.4 µM | [17] > 100 µM | [18] > 100 µM | [19] > 100 µM | [20] > 100 µM

COCCOC(=O)C1=C(O)c2ccccc2S(=O)(=O)N1C
inactive: [2] > 100 µM | [3] > 100 µM | [4] > 100 µM | [5] > 100 µM | [6] > 100 µM | [7] > 100 µM | [8] > 100 µM | [9] > 100 µM | [10] > 100 µM | [11] > 100 µM | [12] > 100 µM | [13] > 100 µM | [14] > 100 µM | [15] > 100 µM | [16] > 100 µM | [17] > 100 µM | [18] > 100 µM | [19] > 100 µM | [20] > 100 µM
> 100 µM: [1]

COc1c2ccoc2c(OC)c2oc(=O)ccc12 [ISOPIMPINELLIN]
inactive: [2] > 100 µM | [3] > 100 µM | [4] > 100 µM | [5] > 100 µM | [6] 95.7 µM | [7] 36.2 µM | [8] > 100 µM | [9] > 100 µM | [10] > 100 µM | [11] > 100 µM | [12] > 100 µM | [13] > 100 µM | [14] > 100 µM | [15] > 100 µM | [16] 70.1 µM | [17] > 100 µM | [18] > 100 µM | [19] > 100 µM | [20] 99.1 µM
> 100 µM: [1]

CC(=O)[C@]1(O)Cc2c(O)c3c(c(O)c2[C@@H](OC2CC(N)C(O)C(C)O2)C1)C(=O)c1c(OCc2ccccc2)cccc1C3=O (stereo not given in full)
inactive: [4] 1.14 µM | [5] 4.06 µM | [6] 2.28 µM | [7] 1.73 µM | [8] 2.06 µM | [11] 1.34 µM | [12] 1.58 µM | [13] 2.43 µM | [14] 1.43 µM | [16] 3.05 µM | [17] 1.84 µM | [18] 9.75 µM | [19] 1.51 µM
active: [2] 1.08 µM | [3] 0.0741 µM | [9] 0.604 µM | [10] 0.946 µM | [15] 0.544 µM | [20] 1.09 µM
1.39 µM: [1]
